The text below walks through data of ChEMBL document CHEMBL1138218, “Structure-activity relationship studies of ethyl 2-amino-6-bromo-4-(1-cyano-2-ethoxy-2-oxoethyl)-4H-chromene-3-carboxylate (HA 14-1), an antagonist for antiapoptotic Bcl-2 proteins to overcome drug resistance in cancer” (J Med Chem, 2006).

pKi: −log10 of the molar value.

The subject of one experiment is Jurkat. Description: Growth inhibition of Jurkat cell. The conditions noted are these: Homo sapiens. The experiment is classed as functional.
The target of experiment [1] is T1, Apoptosis regulator Bcl-2 (Homo sapiens, UniProt P10415). As to the kind of experiment: Growth inhibition of Jurkat cell overexpressing Bcl2. Format: functional, cell-based.
Experiment [2] concerns the target T2, Bcl-2-like protein 1 (Homo sapiens, UniProt Q07817). Description: Growth inhibition of Jurkat cell overexpressing BclXL. The experiment is classed as functional, cell-based.
A short description of experiment [3]: Ratio of GI50 for Jurkat cells overexpressing Bcl2 or BclXL to normal Jurkat cells. Format: functional, Homo sapiens.
In another experiment the test system is NCI-H460. Description: Growth inhibition of NCI-H460 cell. Format: functional. Conditions: Homo sapiens.
The target in the next experiment is T3, Bcl-2-like protein 2 (Homo sapiens, UniProt Q92843).
T3 sequence (Q92843 whole entry): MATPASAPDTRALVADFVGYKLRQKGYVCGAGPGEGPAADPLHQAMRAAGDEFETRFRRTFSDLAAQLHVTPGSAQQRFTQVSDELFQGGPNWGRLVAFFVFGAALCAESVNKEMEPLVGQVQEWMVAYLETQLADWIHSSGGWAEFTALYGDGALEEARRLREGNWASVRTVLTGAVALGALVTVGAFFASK
Description: Binding affinity to Bclw by FP assay.

Experiment [4] has as its target T2, Bcl-2-like protein 1. As to the kind of experiment: Binding affinity to BclXL by FP assay.
In experiment [5] the target is T1, Apoptosis regulator Bcl-2. Description: Binding affinity to Bcl2 by FP assay.

T1 sequence (P10415 whole entry): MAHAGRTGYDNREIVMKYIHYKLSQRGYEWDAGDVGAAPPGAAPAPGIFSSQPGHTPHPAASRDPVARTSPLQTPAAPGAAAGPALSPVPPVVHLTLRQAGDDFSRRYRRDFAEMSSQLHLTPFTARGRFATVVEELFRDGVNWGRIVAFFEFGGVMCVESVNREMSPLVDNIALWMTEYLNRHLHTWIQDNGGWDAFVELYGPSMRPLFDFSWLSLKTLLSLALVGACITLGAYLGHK
T2 sequence (Q07817 whole entry): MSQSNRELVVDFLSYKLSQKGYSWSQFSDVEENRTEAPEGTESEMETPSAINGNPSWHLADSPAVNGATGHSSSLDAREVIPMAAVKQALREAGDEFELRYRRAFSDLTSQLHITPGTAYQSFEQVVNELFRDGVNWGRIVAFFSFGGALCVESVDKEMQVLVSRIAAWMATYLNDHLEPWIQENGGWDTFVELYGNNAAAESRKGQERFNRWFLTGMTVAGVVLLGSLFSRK

A word on the GI50: it is the concentration giving 50% growth inhibition. As usually defined, the pKi is −log10 of the Ki, conventionally taken in molar units. A higher pKi goes with a low Ki. Regarding `CCOC(=O)C1=C(N)Oc2ccc(C)cc2C1C(C#N)C(=O)OCC` (configuration not stated), the GI50 with Jurkat is 29 µM; in experiment [1] it was 37 µM; at Bcl-2-like protein 1 [2] it was 41 µM; in the experiment on NCI-H460, 102 µM. Further, the RatioGI50 in experiment [3] is recorded as less than 1.41. Also, the results for the pKi (at Bcl-2-like protein 2; on Bcl-2-like protein 1 [4]; in experiment [5]) were 3.70, 3.72 and 3.51, respectively.

As to `CC(=O)O[C@H]1C(=O)[C@@]2(C)[C@H]([C@H](OC(=O)c3ccccc3)[C@]3(O)C[C@H](OC(=O)[C@H](O)[C@@H](NC(=O)c4ccccc4)c4ccccc4)C(C)=C1C3(C)C)[C@]1(OC(C)=O)CO[C@@H]1C[C@@H]2O` [PACLITAXEL], the GI50 is less than 0.01 µM in the experiment on Jurkat, greater than 10 µM in experiment [1] and greater than 10 µM on Bcl-2-like protein 1 [2]. For the same molecule, the RatioGI50 in experiment [3] is on record as greater than 100.

On to `CCOC(=O)C1=C(N)Oc2ccc(C3CCCC3)cc2C1C(C#N)C(=O)OCC` (configuration not stated), for which the GI50 was 3.5 µM with Jurkat, 3.8 µM in experiment [1], 3.9 µM on Bcl-2-like protein 1 [2] and 11 µM in the experiment on NCI-H460. Further, the RatioGI50 in experiment [3] is reported as less than 1.1. For the same molecule, the pKi on Bcl-2-like protein 2 was 4.51; at Bcl-2-like protein 1 [4], 4.44; in experiment [5], 3.89.

As to `CCOC(=O)C1=C(N)Oc2ccc(CC)cc2C1C(C#N)C(=O)OCC` (configuration not stated), the GI50 in the experiment on Jurkat is 13 µM; in experiment [1] it was 12 µM; on Bcl-2-like protein 1 [2], 13 µM; in the experiment with NCI-H460, 79.1 µM. Further, in experiment [3], the RatioGI50 is listed as less than 1. Also, the pKi at Bcl-2-like protein 2 is 3.92; at Bcl-2-like protein 1 [4], 3.87; in experiment [5], 3.68.

For the molecule `CCOC(=O)C1=C(N)Oc2ccc(-c3ccc(C(C)(C)C)cc3)cc2C1C(C#N)C(=O)OCC` (configuration not stated), the GI50 turned out to be 0.8 µM in the experiment on Jurkat, 0.99 µM in experiment [1], 0.99 µM on Bcl-2-like protein 1 [2] and 0.16 µM with NCI-H460. The RatioGI50 in experiment [3] is listed as less than 1.24. Besides, the pKi on Bcl-2-like protein 2 is 4.69; at Bcl-2-like protein 1 [4], 4.66.

With `CCOC(=O)C1=C(N)Oc2ccccc2C1C(C#N)C(=O)OCC` (configuration not stated), the GI50 with Jurkat worked out at 66 µM; in experiment [1], 94 µM; at Bcl-2-like protein 1 [2] it was 99 µM; in the experiment with NCI-H460, 157 µM. Besides, the RatioGI50 in experiment [3] is on record as less than 1.5. Further, the pKi at Bcl-2-like protein 2 is 3.16; on Bcl-2-like protein 1 [4], 3.24; in experiment [5], 3.27.

Take `Nc1nc2[nH]cnc2c(=S)[nH]1` [THIOGUANINE]: the results for the GI50 (in the experiment with Jurkat; in experiment [1]; on Bcl-2-like protein 1 [2]) were 13 µM, 147 µM and 183 µM, respectively. Further, the RatioGI50 in experiment [3] is given as greater than 11.

As to `COc1cccc2c1C(=O)c1c(O)c3c(c(O)c1C2=O)C[C@@](O)(C(=O)CO)C[C@@H]3O[C@H]1C[C@H](N)[C@H](O)[C@H](C)O1` [DOXORUBICIN], the figures for the GI50 (with Jurkat; in experiment [1]; on Bcl-2-like protein 1 [2]) were 0.21 µM, 26 µM and 24 µM, respectively. In addition, in experiment [3], the RatioGI50 is on record as greater than 100.

As for `CCOC(=O)C1=C(N)Oc2ccc(-c3ccccc3)cc2C1C(C#N)C(=O)OCC` (configuration not stated), the GI50 with Jurkat came to 3.9 µM; in experiment [1], 4.2 µM; on Bcl-2-like protein 1 [2] it was 4.1 µM; with NCI-H460, 15.9 µM. Besides, the RatioGI50 in experiment [3] is on record as less than 1.07. In addition, the pKi on Bcl-2-like protein 2 was 4.39; at Bcl-2-like protein 1 [4] it was 4.28; in experiment [5] it was 3.95.

For the molecule `CCCc1ccc2c(c1)C(C(C#N)C(=O)OCC)C(C(=O)OCC)=C(N)O2` (configuration not stated), the GI50 with Jurkat was found to be 5.2 µM; in experiment [1], 5.7 µM; on Bcl-2-like protein 1 [2], 6.3 µM; with NCI-H460, 24.9 µM. Moreover, the RatioGI50 in experiment [3] is less than 1.21. In addition, the negative-log Ki (pKi) on Bcl-2-like protein 2 is 4.25; at Bcl-2-like protein 1 [4] it was 4.15; in experiment [5] it was 3.89.
